Results on seven compounds are retold here after ChEMBL document CHEMBL1126814, “Oxindole N-Methyl-D-Aspartate (NMDA) antagonists” (Bioorg Med Chem Lett, 1993).

Usually IC50 stands for the concentration needed to halve the response being measured.

Experiment [1] is described as follows: Ratio of the IC50s of the two assays (alpha1 adrenoceptor binding assay/GT functional assay) used as an estimate of Therapeutic Index.
Experiment [2] has as its target T1, Adrenergic receptor alpha-1 (Rattus norvegicus, UniProt P15823+P23944+P43140).
T1 sequence (P15823 whole entry): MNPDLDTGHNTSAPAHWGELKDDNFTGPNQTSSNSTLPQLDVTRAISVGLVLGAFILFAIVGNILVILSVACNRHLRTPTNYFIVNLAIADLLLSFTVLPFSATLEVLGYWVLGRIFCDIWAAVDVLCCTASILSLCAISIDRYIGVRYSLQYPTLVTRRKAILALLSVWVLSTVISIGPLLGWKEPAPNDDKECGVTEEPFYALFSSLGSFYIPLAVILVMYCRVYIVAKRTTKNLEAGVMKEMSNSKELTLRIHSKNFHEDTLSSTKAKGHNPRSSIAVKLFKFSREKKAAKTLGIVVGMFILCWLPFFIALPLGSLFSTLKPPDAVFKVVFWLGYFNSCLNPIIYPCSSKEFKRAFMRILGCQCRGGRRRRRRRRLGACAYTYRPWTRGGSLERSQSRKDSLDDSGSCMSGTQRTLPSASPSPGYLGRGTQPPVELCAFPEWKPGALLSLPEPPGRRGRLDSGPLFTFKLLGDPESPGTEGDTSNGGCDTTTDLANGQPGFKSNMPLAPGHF
T1 sequence (P23944 whole entry): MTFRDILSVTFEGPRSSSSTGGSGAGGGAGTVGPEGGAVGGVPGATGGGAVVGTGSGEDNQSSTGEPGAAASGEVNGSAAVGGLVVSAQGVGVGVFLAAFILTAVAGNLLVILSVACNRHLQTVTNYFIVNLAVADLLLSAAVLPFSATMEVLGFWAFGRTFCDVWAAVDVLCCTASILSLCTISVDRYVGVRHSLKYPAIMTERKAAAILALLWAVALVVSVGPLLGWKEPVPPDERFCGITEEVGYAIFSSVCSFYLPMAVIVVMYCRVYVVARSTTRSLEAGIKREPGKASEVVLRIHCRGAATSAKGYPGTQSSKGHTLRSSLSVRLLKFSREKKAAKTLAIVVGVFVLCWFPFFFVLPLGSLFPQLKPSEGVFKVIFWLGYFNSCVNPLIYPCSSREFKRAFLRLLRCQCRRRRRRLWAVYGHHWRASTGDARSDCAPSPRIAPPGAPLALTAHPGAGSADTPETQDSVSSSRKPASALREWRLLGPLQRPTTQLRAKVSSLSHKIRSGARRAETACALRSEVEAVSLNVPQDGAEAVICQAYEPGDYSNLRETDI
T1 sequence (P43140 whole entry): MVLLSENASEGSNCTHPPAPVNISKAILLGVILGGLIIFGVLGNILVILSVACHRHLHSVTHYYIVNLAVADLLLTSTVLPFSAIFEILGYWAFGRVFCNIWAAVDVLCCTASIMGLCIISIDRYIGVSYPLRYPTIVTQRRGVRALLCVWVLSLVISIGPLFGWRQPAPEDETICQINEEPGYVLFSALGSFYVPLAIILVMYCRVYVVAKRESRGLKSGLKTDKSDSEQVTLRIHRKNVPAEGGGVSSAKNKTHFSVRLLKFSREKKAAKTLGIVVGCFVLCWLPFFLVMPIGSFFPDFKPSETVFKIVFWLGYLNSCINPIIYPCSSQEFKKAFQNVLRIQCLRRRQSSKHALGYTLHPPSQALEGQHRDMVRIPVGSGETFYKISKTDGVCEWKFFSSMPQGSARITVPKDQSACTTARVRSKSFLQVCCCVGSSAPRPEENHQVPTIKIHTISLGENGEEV
As to the kind of experiment: Tested for the Alpha-1 adrenergic receptor affinity in a standard radioligand binding assay with [3H]- prazosin. Format: protein assay.

Take `C[C@@H]([C@@H](O)c1ccc(O)cc1)N1CCC(Cc2ccccc2)CC1`: the TI in experiment [1] was 15.3. As for `C[C@@H]([C@@H](O)c1ccc2c(c1)CC(=O)N2)N1CCC(c2ccccc2)CC1`, the TI in experiment [1] is 8.7. In experiment [2], this compound registered an IC50 of 349 nM. In the same order, the values of `O=C1Cc2cc(C(O)CN3CCC(Cc4ccc(F)cc4)CC3)ccc2N1` (stereo not drawn) are 0.3 and 183 nM. In the same order, the values of `OC(CN1CCC(Cc2ccc(F)cc2)CC1)c1ccc(Cl)cc1` (stereo not drawn) [ELIPRODIL] are 0.8 and 800 nM.

Take `C[C@@H]([C@H](O)c1ccc2c(c1)CC(=O)N2)N1CCC(Cc2ccccc2)CC1`: the TI in experiment [1] was 0.4. Further, the IC50 in experiment [2] is on record as 100 nM. In the same order, the values of `C[C@@H]([C@@H](O)c1ccc2c(c1)CC(=O)N2)N1CCC(Cc2ccccc2)CC1` are 6.4 and 710 nM. In the same order, the values of `C[C@@H]([C@H](O)c1ccc(O)cc1)N1CCC(Cc2ccccc2)CC1` [(R,S)-IFENPRODIL] are 0.38 and 100 nM.
